Experimental data reported in patent publication US9688678B2, “Oxindole compounds carrying a nitrogen-bound spiro substituent and use thereof for treating vasopressin-related diseases” (AbbVie Deutschland GmbH & Co. KG, priority 2014, dated 2017).
pKi: −log10 of the molar value.

Assays:
[1] = target: human vasopressin V1b receptor (Homo sapiens (Human), UniProt P47901); assay: Vasopressin V1b receptor binding assay; conditions: membranes from CHO-K1 cells, displacement of 3H-AVP
Procedure: The test substances were dissolved in a concentration of 5 mM in 100% DMSO and further diluted to 5×10^−4 M to 5×10^−9 M. These serial DMSO predilutions were diluted 1:10 with assay buffer. The substance concentration was further diluted 1:5 in the assay mixture resulting in 2% DMSO in the mixture. All dilutions were performed in a Biomek NX automation workstation (Beckman)
The membrane pellet was again homogenized and centrifuged as described and subsequently taken up in 50 mM Tris-HCl, pH 7.4, homogenized and stored in aliquots frozen in liquid nitrogen at −190° C.
(§1) The incubation buffer was: 50 mM Tris, 10 mM MgCl2, 0.1% BSA, pH 7.4.
All determinations were carried out as duplicate determinations. […] The liquid scintillation measurement took place in a Microbeta TriLux 12 (Wallac). Analysis:
(§2) The binding parameters were calculated by nonlinear regression in SAS.

[2] = target: human vasopressin V1a receptor (Homo sapiens (Human), UniProt P37288); assay: Vasopressin V1a receptor binding assay; conditions: selectivity quotient, human V1a vs human V1b receptor
Chain of human vasopressin V1a receptor (P37288 whole entry): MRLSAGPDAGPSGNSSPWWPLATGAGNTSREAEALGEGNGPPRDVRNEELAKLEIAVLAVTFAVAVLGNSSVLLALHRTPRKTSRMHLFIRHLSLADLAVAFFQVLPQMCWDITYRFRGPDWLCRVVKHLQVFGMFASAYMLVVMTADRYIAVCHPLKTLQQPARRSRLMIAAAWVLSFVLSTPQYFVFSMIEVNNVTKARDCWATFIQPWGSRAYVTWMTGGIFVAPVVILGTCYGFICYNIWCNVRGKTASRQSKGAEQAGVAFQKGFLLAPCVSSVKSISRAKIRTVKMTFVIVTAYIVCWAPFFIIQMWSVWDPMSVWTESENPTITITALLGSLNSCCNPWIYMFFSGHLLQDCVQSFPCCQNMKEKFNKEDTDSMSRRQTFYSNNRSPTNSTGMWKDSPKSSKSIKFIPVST
Procedure: The test substances were dissolved in a concentration of 5 mM M in DMSO. Further dilution of these DMSO solutions took place as described for V1b.
The membrane pellet was again homogenized in a High-Pressure-Homogenizer, Polytec 50K at 1500 PSI (Heinemann, Germany) and subsequently taken up in 50 mM Tris-HCl, pH 7.4, homogenized and stored in aliquots frozen in liquid nitrogen at −190° C.
as §1
Duplicate determinations were carried out.
After incubation (60 minutes at room temperature), the samples were processed as described for V1b.
as §2

Chain of human vasopressin V1b receptor (P47901 whole entry): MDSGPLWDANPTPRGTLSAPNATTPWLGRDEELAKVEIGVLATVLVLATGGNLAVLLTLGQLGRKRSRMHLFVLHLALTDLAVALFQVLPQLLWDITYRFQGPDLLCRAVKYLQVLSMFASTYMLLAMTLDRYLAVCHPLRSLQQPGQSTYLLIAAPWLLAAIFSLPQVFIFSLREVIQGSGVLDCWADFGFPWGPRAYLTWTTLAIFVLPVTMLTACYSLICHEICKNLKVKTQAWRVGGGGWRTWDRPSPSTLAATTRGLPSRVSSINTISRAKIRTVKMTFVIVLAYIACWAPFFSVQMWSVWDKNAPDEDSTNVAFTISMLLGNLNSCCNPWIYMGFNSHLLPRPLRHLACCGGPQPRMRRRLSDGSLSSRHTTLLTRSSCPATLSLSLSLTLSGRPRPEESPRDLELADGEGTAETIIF

pKi [1] | Ki(h-V1a)/ Ki(h-V1b) [2] | SMILES
8.00 to 9.00 | +++ (>75) | CCOc1ccc(OC)cc1C1(N2CC3(CN(C4CCN(CCOC)CC4)C3)C2)C(=O)N(S(=O)(=O)c2ccc(OC)cn2)c2ccc(C#N)cc21 (racemic) [Example 20, (±)-3-(2-ethoxy-5-methoxy-phenyl)-3-[2-[1-(2-methoxyethyl)-4-piperidyl]-2,6-diazaspiro[3.3]heptan-6-yl]-1-[(5-methoxy-2-pyridyl)sulfonyl]-2-oxo-indoline-5-carbonitrile]
7.00 to 8.00 | +++ (>75) | CCOc1ccc(OC)cc1C1(N2CC3(CN(C4CCN(C)CC4)C3)C2)C(=O)N(S(=O)(=O)c2ccc(C#N)cc2)c2ccc(C#N)cc21 (racemic) [Example 14, (±)-1-(4-cyanophenyl)sulfonyl-3-(2-ethoxy-5-methoxy-phenyl)-3-[2-(1-methyl-4-piperidyl)-2,6-diazaspiro[3.3]heptan-6-yl]-2-oxo-indoline-5-carbonitrile]
8.00 to 9.00 | ++ (25-75) | COc1ccc(S(=O)(=O)N2C(=O)C(c3ccccc3OC)(N3CC4(CC(N5CCN(C)CC5)C4)C3)c3cc(C#N)ccc32)nc1 (racemic) [Example 26, (±)-3-(2-methoxyphenyl)-1-[(5-methoxy-2-pyridyl)sulfonyl]-3-[2-(4-methylpiperazin-1-yl)-6-azaspiro[3.3]heptan-6-yl]-2-oxo-indoline-5-carbonitrile]
